target: Angiotensin II receptor (Oryctolagus cuniculus); assay: Tested in vitro for angiotensin II induced antagonistic activity in rabbit aorta, expressed as pA2

pA2	SMILES
9	CCCN(Cc1ccc(-c2ccccc2-c2nn[nH]n2)cc1)c1nsnc1C(=O)O
8.86	CCCCN(Cc1ccc(-c2ccccc2-c2nn[nH]n2)cc1)c1nnn(CCCC)c1C(=O)O
7.87	CCCN(Cc1ccc(-c2ccccc2-c2nn[nH]n2)cc1)c1ncc(C(=O)O)s1
7.34	CCCCCCN(Cc1ccc(-c2ccccc2-c2nn[nH]n2)cc1)c1ncc(C(=O)O)s1
6.46	CCCCN(Cc1ccc(-c2ccccc2-c2nn[nH]n2)cc1)c1c(C(=O)O)ncn1C
8.63	CCCN(Cc1ccc(-c2ccccc2-c2nn[nH]n2)cc1)c1nc(C)c(C(=O)O)s1
8.6	CCCCN(Cc1ccc(-c2ccccc2-c2nn[nH]n2)cc1)c1nnn(C)c1C(=O)O
7.56	CCCN(Cc1ccc(-c2ccccc2-c2nn[nH]n2)cc1)c1nc(C(F)(F)F)c(C(=O)O)s1
8.36	CCCCN(Cc1ccc(-c2ccccc2-c2nn[nH]n2)cc1)c1snnc1C(=O)O
< 6	CCCc1nc(NCc2ccc(-c3ccccc3-c3nn[nH]n3)cc2)sc1C(=O)O
8.8	CCCCN(Cc1ccc(-c2ccccc2-c2nn[nH]n2)cc1)c1ncc(C(=O)O)s1
8.2	CCCCN(Cc1ccc(-c2ccccc2-c2nn[nH]n2)cc1)c1scnc1C(=O)O
7.43	CCCc1nc(N(CCC)Cc2ccc(-c3ccccc3-c3nn[nH]n3)cc2)sc1C(=O)O
< 7	CCCCN(Cc1ccc(-c2ccccc2-c2nn[nH]n2)cc1)c1c(C(=O)O)cnn1C
< 6	O=C(O)c1cnc(NCc2ccc(-c3ccccc3-c3nn[nH]n3)cc2)s1
7.94	CCCN(Cc1ccc(-c2ccccc2-c2nn[nH]n2)cc1)c1nn(C)cc1C(=O)O

Source: ChEMBL document CHEMBL1127867, “5-Membered ring heterocyclic carboxylic acids as angiotensin II antagonists” (Bioorg Med Chem Lett, 1994)
